Experimental data reported in the NIST ThermoML archive (doi:10.1021/je400486p).

Test: refractive index (Na D-line) (dimensionless); xn = mol fraction of the nth substance listed
Details: 101.3 kPa, Liquid, Standard Abbe refractometry

COCCOCCOCCOCCOC [2,5,8,11,14-pentaoxapentadecane] + CCC(C)O
refractive index
Details | x2 = 0 | x2 = 0.1007 | x2 = 0.2003 | x2 = 0.3015 | x2 = 0.3991 | x2 = 0.5011 | x2 = 0.6024 | x2 = 0.6997 | x2 = 0.7998 | x2 = 0.9004
288.15 K | 1.4345 | 1.43266 | 1.43063 | 1.42851 | 1.42627 | 1.42333 | 1.41994 | 1.41632 | 1.41171 | 1.40624
293.15 K | 1.43238 | 1.43054 | 1.42851 | 1.42637 | 1.42412 | 1.42118 | 1.41778 | 1.41418 | 1.4096 | 1.40412
298.15 K | 1.43027 | 1.42843 | 1.42637 | 1.42424 | 1.42197 | 1.41902 | 1.41562 | 1.41202 | 1.40743 | 1.40197
303.15 K | 1.42815 | 1.42631 | 1.42424 | 1.4221 | 1.41983 | 1.41687 | 1.41347 | 1.40983 | 1.40522 | 1.39977
308.15 K | 1.42603 | 1.4242 | 1.42212 | 1.41998 | 1.41768 | 1.41473 | 1.41133 | 1.40765 | 1.40302 | 1.39751
313.15 K | 1.42394 | 1.42209 | 1.42001 | 1.41785 | 1.4155 | 1.41255 | 1.40915 | 1.40543 | 1.40077 | 1.39524
318.15 K | 1.42183 | 1.42003 | 1.4179 | 1.41571 | 1.41339 | 1.41039 | 1.40698 | 1.40327 | 1.39857 | 1.393
323.15 K | 1.41973 | 1.41794 | 1.4158 | 1.4136 | 1.41127 | 1.40823 | 1.40477 | 1.40104 | 1.39628 | 1.39067

CN1CCCC1=O [N-methylpyrrolidone] + CCC(C)O
refractive index
Details | x2 = 0 | x2 = 0.1049 | x2 = 0.2001 | x2 = 0.3009 | x2 = 0.4019 | x2 = 0.5003 | x2 = 0.5995 | x2 = 0.7004 | x2 = 0.7985 | x2 = 0.899
288.15 K | 1.47166 | 1.46489 | 1.45851 | 1.45151 | 1.44431 | 1.43715 | 1.42982 | 1.42227 | 1.41487 | 1.40724
293.15 K | 1.46952 | 1.46273 | 1.45634 | 1.44937 | 1.44219 | 1.43504 | 1.42772 | 1.42016 | 1.41275 | 1.40512
298.15 K | 1.46736 | 1.46061 | 1.45418 | 1.4473 | 1.44013 | 1.43298 | 1.42564 | 1.41806 | 1.41063 | 1.40302
303.15 K | 1.4652 | 1.45844 | 1.45203 | 1.44515 | 1.43799 | 1.43083 | 1.42349 | 1.41587 | 1.40842 | 1.40081
308.15 K | 1.46306 | 1.45632 | 1.44987 | 1.44301 | 1.43583 | 1.42867 | 1.42131 | 1.41372 | 1.40626 | 1.39861
313.15 K | 1.46095 | 1.45416 | 1.44773 | 1.44083 | 1.43366 | 1.42651 | 1.41919 | 1.41155 | 1.40406 | 1.39638
318.15 K | 1.45891 | 1.45204 | 1.44559 | 1.43868 | 1.43152 | 1.42436 | 1.41701 | 1.40934 | 1.40181 | 1.39408
323.15 K | 1.4568 | 1.44996 | 1.4435 | 1.43654 | 1.42934 | 1.42215 | 1.41481 | 1.40711 | 1.39955 | 1.39172
